This note sets out measurements from the OPERA property sets (Mansouri et al. 2018).

Each structure is given as a SMILES string. Where a SMILES comes first, the peptide text is derived from it.

`Cc1cc(C)c2c(c1)COP(=O)(OCC1C=CC(n3cc(C)c(=O)[nH]c3=O)O1)O2` (stereo not given) came in with a logP of 1.18.

`Cn1c([N+](=O)[O-])cnc1-c1ccc(F)cc1` gave a logP of 1.83.

The compound `O=c1cc(-c2cccc(Cl)c2)oc2ccccc12` displayed a lipophilicity (logP) of 3.91.

`O=[N+]([O-])c1ccc(CSc2ncnc3c(C4OC(CO)C(O)C4O)n[nH]c23)cc1` (stereo not given) had a logP of 0.5.

On to `CCCCC(=O)OCC(=O)C1(O)Cc2c(O)c3c(c(O)c2C(OC2CC(N)C(O)C(C)O2)C1)C(=O)c1c(OC)cccc1C3=O` (stereo not given), for which the logP was 2.56.

Turning to `CSCCC(NC(=O)C(N)CC(C)C)C(=O)O` (stereo not drawn) (H-Leu-Met-OH; configuration not given here), the logP was -1.87.

Take `O=C(Cn1ncc([N+](=O)[O-])n1)NCCO`: the logP was -0.82.

Compound `COc1ccc(CCNCC(O)COc2ccc(-c3nc(C(N)=O)c[nH]3)cc2)cc1OC` (stereo not given) displayed a logP of 2.3.

Take `COc1ccc2c(c1)COP(=O)(OCC1C=CC(n3cc(C)c(=O)[nH]c3=O)O1)O2` (stereo not given): the logP was 0.36.

The compound `CNC(=S)NN=C(C)CSCC(C)=NNC(=S)NC` displayed a logP of 1.38.

With `CCCCNC(=N)NC(=O)c1ccc(Cl)cc1`, the logP is 3.08.

For `NC(Cc1ccc(O)cc1)C(=O)N1CCCC1C(=O)O` (stereo not drawn) (H-Tyr-Pro-OH; configuration not given here), the logP was -2.03.

The compound `COc1ccc(C2Cc3cc(C(F)(F)F)ccc3N(CCN(C)C)C(=O)C2NC(C)=O)cc1` (stereo not given) displayed a logP of 3.6.

On to `Cc1c(O)c(=O)ccn1CCCOC(=O)c1ccc(N(C)C)cc1`, for which the logP turned out to be 1.66.

As for `Cc1ccc(CO)c(C=NNC(=O)c2cccc(Br)c2)c1O`, the logP worked out at 3.91.

`CC(=O)OCc1ccccn1`: the logP came out at 0.39.

`CNC(=S)NN=C(c1cccc([N+](=O)[O-])c1)c1ccccn1` came in with a logP of 2.14.

With `COc1cc(OC)c(Cl)cc1N`, the logP came out at 1.45.

`C=C(C)C(=O)OCC(COC(=O)C(=C)C)COC(=O)C(=C)C` returned a logP of 3.53.

Compound `CC(C)OC(=O)C(=Cc1ccccc1)S(=O)(=O)c1ccc(Cl)cc1` registered a logP of 4.18.

In turn, `O=c1cc(CCl)oc(Br)c1O` registered a logP of 1.08.

On to `O=C1NC(Cc2c[nH]c3ccccc23)C(=O)NC1Cc1c[nH]c2ccccc12` (stereo not given), for which the logP came to 2.04.

Compound `CCCc1c(O)c(=O)cc(C)n1C` gave a logP of 0.4.

`CNC(=O)c1cn2c(C)c(C)nc2c2c1CCC(c1ccccc1)O2` (stereo not given): the logP stood at 3.6.

Turning to `CC(C)C(=O)OCC(=O)C1(O)C(C)CC2C3CCC4=CC(=O)C=CC4(C)C3(F)C(O)CC21C` (stereo not given), the logP turned out to be 3.4.

Take `CC(=O)Nc1ccc(S(=O)(=O)Nc2cc(C)nc(C)n2)cc1`: the logP is -0.14.

In the case of `CC1NCCc2c1[nH]c1ccccc21` (stereo not given), the logP worked out at 2.06.

`O=C(NC1CCCCCCC1)NS(=O)(=O)c1cnccc1NC1CCCCCC1` had a logP of 5.34.

`CCc1cccc(Nc2ccncc2S(=O)(=O)NC(=NC#N)NC(C)C)c1` displayed a logP of 2.4.

On to `COc1c2oc(=O)ccc2cc2ccsc12`, for which the logP was 2.66.

Turning to `Cc1ccc(CO)c(C=NNC(=O)c2cccc(F)c2)c1O`, the logP is 3.41.

With `O=C(O)CCCCON=C(c1cccc(C(F)(F)F)c1)c1ccncn1`, the logP is 3.14.

In turn, `COc1cc2ncnc(Nc3cccc(Br)c3)c2cc1OC` yielded a logP of 3.49.

Compound `c1ccc2c(c1)OCC(CCc1ncc[nH]1)O2` (stereo not given) gave a logP of 1.99.

`C=CCNC(=O)c1[nH]cc(-c2ccc(Cl)cc2)c1N1CCOCC1`: the logP was 3.7.

`COc1ccc(C2Cc3cc(C(F)(F)F)ccc3N(CCN(C)C)C(=O)C2SC(C)=O)cc1` (stereo not given) displayed a logP of 5.4.

Compound `CCON=C(CC)C1=C(O)CC(c2cccc(Oc3ccc(Cl)c(Cl)c3)c2)CC1=O` (stereo not given) gave a logP of 6.32.

`O=c1[nH]c2cc(Cl)c(Cl)c([N+](=O)[O-])c2[nH]c1=O` returned a logP of 0.21.

`CNC1CCc2c(OC)cccc2C1C` (stereo not given) gave a logP of 2.42.

`COCOc1ccc(Cc2cccc(-c3c(O)c4ccc(Cl)cc4[nH]c3=O)c2)cc1` had a logP of 5.24.

`COc1ccccc1CNc1ncnc2nc[nH]c12` showed a logP of 2.31.

Take `CCc1c(C)nc2c3c(c(C(=O)N(C)C)cn12)CCC(c1ccccc1)O3` (stereo not given): the logP was 3.2.

In the case of `Nc1nnnn1-c1cccc(F)c1`, the logP was 0.91.

In the case of `CN(C)C(c1ccccc1)c1ccccc1`, the logP is 3.37.

For `NC(Cc1ccc(Cl)cc1)C(=O)O` (stereo not given), the logP was -0.47.

`CN1CCN(c2cc3c(cc2F)c(=O)c(C(=O)O)cn3C2CC2)CC1` yielded a logP of 0.15.

Turning to `Clc1cc2c(oc3c(Cl)c(Cl)ccc32)c(Cl)c1Cl`, the logP was 6.47.

As for `Cc1c(C)c2cc3ccoc3cc2oc1=O`, the logP amounted to 2.77.

`COc1cc2ncnc(Nc3cccc(I)c3)c2cc1OC` returned a logP of 3.65.

`Cc1cc(C(=O)O)ccc1[N+](=O)[O-]` had a logP of 2.42.

`NC(Cc1ccc(O)cc1)C(=O)NC(Cc1ccc(O)cc1)C(=O)O` (stereo not drawn) (H-Tyr-Tyr-OH; configuration not given here) came in with a logP of -1.87.

In turn, `CC(C)C[C@H](NC(=O)[C@@H](N)CC(C)C)C(=O)O` showed a logP of -1.47.

As for `CC(=O)Nc1ccc(F)cc1F`, the logP came out at 1.5.

The compound `Clc1cccc(Oc2c(Cl)cc(Cl)cc2Cl)c1` had a logP of 6.05.

Consider `Cc1cccc2c1OCN(CCO[N+](=O)[O-])C2=O`, for which the logP was determined as 2.48.

`O=C1C=C(N2CCOCC2)C(=O)N1c1ccc(Cl)cc1` returned a logP of 2.3.

As for `O=C1NC(c2ccccc2)(c2ccccc2)C(=O)N1CO`, the logP was 2.23.

With `OCCCNc1[nH]cnc2ncnc1-2`, the logP came to 0.11.

`Cc1ccc(N2CC(N3CCOCC3)=CC2=O)cc1` displayed a logP of 1.4.

Regarding `Cc1ccccc1CNc1[nH]cnc2ncnc1-2`, the logP is 2.58.

For `Cc1cc2c(C)cc3oc(=O)cc(C)c3c2o1`, the logP turned out to be 3.25.

`O=c1cc(CSC2CCCCC2)occ1O` came in with a logP of 1.75.

`CCCCCCCNC1=NS(=O)N=C1NCCSCc1ccc(CN(C)C)o1` (stereo not given) returned a logP of 3.91.

Compound `CC(=NNC(=O)c1cccc(Br)c1)c1cnccn1` registered a logP of 2.9.

For `O=C(NS(=O)(=O)c1cnccc1NC1CCCCCCC1)N1CCCCC1`, the logP was 4.55.

As for `O=C(OC1Cc2c(O)cc(O)cc2OC1c1ccc(O)c(O)c1)c1ccccc1` (stereo not given), the logP is 3.44.

Compound `CC(C)(O)C1CCC2(C)CCCC(O)(CO)C2C1` (stereo not given) displayed a logP of 1.54.

Consider `CN1COCc2c1ccc1cc3ccc(N)c(CO)c3nc21`, for which the logP amounted to 1.64.

`CC(C)(C)NC(=O)[C@@H]1C[C@@H]2CCCC[C@@H]2CN1C[C@@H](O)[C@H](Cc1ccccc1)NC(=O)[C@H](CC(N)=O)NC(=O)c1ccc2ccccc2n1` came in with a logP of 4.7.

Turning to `COC(=O)C1=C(C)NC(C)=C(P2(=O)OCCCO2)C1c1ccccc1[N+](=O)[O-]` (stereo not given), the logP was found to be 1.3.

`COc1ccc(CCNCC(O)COc2ccc(Cc3nc(C)c[nH]3)cc2)cc1OC` (stereo not given) gave a logP of 2.5.

Take `CCOP(=O)(OCC)C(Cl)(Cl)P(=O)(OCC)OCC`: the logP was found to be 1.31.

As to `CC(C)CCNc1ncnc2nc[nH]c12`, the logP was 2.51.

`Clc1ccc(-c2c[nH]cc2N2CCOCC2)cc1` returned a logP of 3.2.

`CC(C)CC(N)C(=O)NC(CC(C)C)C(=O)NC(C(=O)NC(Cc1ccccc1)C(=O)O)C(C)C` (stereo not given) (H-LLVF-OH; configuration not given here) registered a logP of -0.25.

As to `CC(C)C(Nc1ccc([N+](=O)[O-])cc1[N+](=O)[O-])C(=O)O` (stereo not given), the logP turned out to be 2.88.

Compound `CCC(C)Nc1nc(N)nc(Cl)n1` (stereo not given) registered a logP of 1.86.

The compound `Clc1cc2c(c(Cl)c1Cl)Oc1c(Cl)ccc(Cl)c1O2` came in with a logP of 6.24.

Take `CCCc1c(C)nc2cccc(C)n2c1=O`: the logP amounted to 2.22.

`O=C(c1ccccn1)n1c(=O)[nH]cc(F)c1=O` gave a logP of -0.06.

`CSc1ncc([N+](=O)[O-])n1C` displayed a logP of 0.94.

Regarding `CCOc1cc2ncnc(Nc3cc(F)cc(C(F)(F)F)c3)c2cc1OCC`, the logP was found to be 5.49.

As to `C=CC(=O)OCCCOC(=O)C=C`, the logP was found to be 0.87.

In the case of `ClCC1(C(Cl)Cl)C2CC(Cl)(Cl)C1(C(Cl)Cl)C(Cl)C2(Cl)Cl` (stereo not given), the logP worked out at 6.64.

`Cc1c(C)c2cc3ccoc3c(C)c2oc1=O` came in with a logP of 3.25.

`COc1cc(OC)nc(Oc2cccc(Cl)c2C(=O)O)n1` displayed a logP of 2.23.

In turn, `CCC(C)C(NC(=O)C(C)N)C(=O)O` (stereo not given) returned a logP of -2.6.

Compound `CCC(=O)Nc1ccc2cc3ccc(N)c(CO)c3nc2c1` showed a logP of 1.55.

The compound `CC1(C)Oc2ccc(C#N)cc2C(N2CCCC2=O)C1O` (stereo not given) displayed a lipophilicity (logP) of 2.32.

With `CCN(CC)C(=O)c1cn2c(C)c(C)nc2c2c1CCC(c1ccccc1)O2` (stereo not given), the logP is 4.

Regarding `O=C(NCC(F)(F)F)NS(=O)(=O)c1cnccc1NC1CCCCCCC1`, the logP amounted to 4.22.

Consider `CC1CC2C3CCC4=CC(=O)C=CC4(C)C3(F)C(O)CC2(C)C1(O)C(=O)COC(=O)C1CCCCC1` (stereo not given), for which the logP is 4.46.

The compound `COc1ccc(CNCC(O)CON=C(C2CC2)C2CC2)c(OC)c1` (stereo not given) came in with a logP of 2.22.

`Brc1ccc2ccc3c(Br)ccc4ccc1c2c43` registered a logP of 6.69.

`COC(=O)C(C)NP(=O)(OCC1C=CC(n2cc(C)c(=O)[nH]c2=O)O1)Oc1cccc(F)c1` (stereo not given) gave a logP of 1.08.

The compound `Brc1ccc(Br)c(N=C2NCCN2)c1` yielded a logP of 2.71.

`CC(C)C(N)C(=O)NC(C(=O)O)C(C)C` (stereo not drawn) (H-Val-Val-OH; configuration not given here): the logP was -2.82.

`CC(C)CC(NC(=O)CNC(=O)C(NC(=O)C(Cc1ccccc1)NC(=O)C(N)C(C)C)C(C)C)C(=O)O` (stereo not given) (H-VFVGL-OH; configuration not given here) gave a logP of -0.97.

In turn, `CCOP(=O)(OCC)C(C)(C)[N+]([O-])=Cc1ccc(Cl)cc1` returned a logP of 2.29.

Compound `CCCNC(=O)CNC(=O)C=[N+]=[N-]` had a logP of -0.24.

As for `COc1ccc(Nc2nc(O)nc(NC(C)C)n2)cc1OC`, the logP came out at 3.49.

`Brc1cc2ccc3cccc4ccc(c1)c2c34` displayed a logP of 5.8.

On to `CNc1nc(NC)nc(NC(C)C)n1`, for which the logP is 1.87.

Take `CCOP(=O)(NC(C)CC)Oc1cc(C)ccc1[N+](=O)[O-]` (stereo not given): the logP was determined as 2.73.

Turning to `CCO[PH](=O)O`, the lipophilicity (logP) was -2.7.

Broadly, the logP is a log measure of how a compound divides between an organic and an aqueous phase. A lower logP goes with a more hydrophilic compound.
